Source: patent publication US20130012432A1, “Peptides for Treatment of Obesity” (Novo Nordisk A/S, priority 2010, published 2013)
≈ marks a conversion by molar mass, not a printed value. Positions of bridges follow the written chain, without caps; N, C: chain ends. Non-standard residues stand in square brackets, D forms with d. Residues, ends and D or L forms follow the SMILES beside them. Groups on a side chain read outwards from the residue. *: point of attachment. Palmitoyl(16-(5-tetrazolyl)) = O=C(CCCCCCCCCCCCCCCc1nnn[nH]1)*; Lys(CH2CO2H)2 = N[C@@H](CCCCN(CC(=O)O)CC(=O)O)C(=O)O; C18 diacid = O=C(O)CCCCCCCCCCCCCCCCC(=O)*; Orn = NCCC[C@H](N)C(=O)O; AEEA = NCCOCCOCC(=O)O

Experiments:
physchem = assay: physchem
Experimental: From a stock solution in vehicle, either H2O or 10 mM phosphate, containing 1 mg (as weighed) compound per ml, 8-11 aliquots are withdrawn and pH-adjusted individually with HCl/NaOH, to cover the whole pH range.

human MC4 receptor = human MC4 receptor (Homo sapiens, UniProt P32245); assay: biochemical
Chain of human MC4 receptor (P32245 whole entry): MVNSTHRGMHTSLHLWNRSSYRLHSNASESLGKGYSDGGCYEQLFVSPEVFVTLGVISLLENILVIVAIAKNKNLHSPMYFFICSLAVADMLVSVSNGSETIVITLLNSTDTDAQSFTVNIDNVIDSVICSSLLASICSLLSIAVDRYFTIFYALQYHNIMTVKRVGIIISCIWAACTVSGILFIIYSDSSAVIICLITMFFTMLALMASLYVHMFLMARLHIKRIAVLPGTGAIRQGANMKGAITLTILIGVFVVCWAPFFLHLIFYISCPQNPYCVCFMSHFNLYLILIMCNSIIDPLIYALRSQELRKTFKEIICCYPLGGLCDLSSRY
Experimental: Assay (V)—Melanocortin Receptor 4 (MC4) Binding Assay
In Vitro ^125NDP-α-MSH Binding to Recombinant BHK Cells Expressing Human MC4 Receptor (Filtration Assay).
The assay was performed in 5 ml minisorb vials (Sarstedt No. 55.526) or in 96-well filter-plates (Millipore MADVN 6550), and using BHK cells expressing the human MC4 receptor using BHK cells stably expressing the human MC4 receptor. The membranes were prepared from frozen or fresh cells that were homogenized in 20 mM HEPES pH 7.1, 5 mM MgCl2 and 1 mg/ml bacitracin and centrifuged at 15000 rpm at 4° C., 10 min in a Sorvall RC 5B plus, SS-34 rotor. The supernatant was discarded, and the pellets were re-suspended in buffer, homogenized and centrifuged two more times. The final pellets were resuspended in the buffer mentioned above, and the protein concentration was measured and adjusted with buffer to 14 to 17 mg/ml and the membrane preparation were kept at −80° C. until assay. The assay was run directly on a dilution of this cell membrane suspension, without any further preparation. The BHK cell membranes are kept at −80° C. until assay, and the assay is run directly on a dilution of this cell membrane suspension, without further preparation. The suspension is diluted to give maximally 10% specific binding, i.e. to approx. 50-100 fold dilution. The assay was performed in a total volume of 200 μl: 50 μl of cell suspension, 50 μl of ^125NDP-α-MSH (≈79 pM in final concentration), 50 μl of test compound and 50 μl binding buffer (pH 7) mixed and incubated for 2 h at 25° C. [binding buffer: 25 mM HEPES, pH 7.0, 1 mM CaCl2, 1 mM MgSO4, 1 mM EGTA, 0.02% Bacitracin, 0.005% Tween™ 20 and 0.1% HSA or, alternatively, 0.1% ovalbumin (Sigma; catalogue No. A-5503)]. Test compounds were dissolved in DMSO and diluted in binding buffer. Radiolabelled ligand and membranes were diluted in binding buffer. The incubation was stopped by dilution with 2×100 μl ice-cold 0.9% NaCl. The radioactivity retained on the filters was counted using a Cobra II auto gamma counter.
The data were analysed by non-linear regression analysis of binding curves, using the Windows™ program GraphPad™ Prism (GraphPad Software, USA).

Row | SMILES | solubility (physchem; pH 5.5, Solubility Conc.) | solubility (physchem; pH 6.3, Solubility Conc.) | solubility (physchem; pH 6.6, Solubility Conc.) | solubility (physchem; pH 6.9, Solubility Conc.) | solubility (physchem; pH 7.2, Solubility Conc.) | solubility (physchem; pH 7.3, Solubility Conc.) | solubility (physchem; pH 7.4, Solubility Conc.) | solubility (physchem; pH 7.8, Solubility Conc.) | solubility (physchem; pH 8, Solubility Conc.) | Ki (human MC4 receptor) | solubility (physchem; pH 6.4, Solubility Conc.) | solubility (physchem; pH 6.8, Solubility Conc.) | solubility (physchem; pH 7.5, Solubility Conc.) | solubility (physchem; pH 7.7, Solubility Conc.) | solubility (physchem; pH 7.9, Solubility Conc.) | solubility (physchem; pH 5.4, Solubility Conc.) | solubility (physchem; pH 6.2, Solubility Conc.) | solubility (physchem; pH 6.5, Solubility Conc.) | solubility (physchem; pH 7, Solubility Conc.) | solubility (physchem; pH 7.6, Solubility Conc.)
1 | CC(=O)N[C@H]1CCCNC(=O)C[C@@H](C(=O)N2CCC[C@H]2C(=O)N2CCC[C@H]2C(=O)N[C@@H](CCCNC(=N)N)C(=O)N[C@@H](CCC(=O)O)C(=O)N[C@@H](CCCCN(CC(=O)O)CC(=O)O)C(=O)N[C@@H](CCCCNC(=O)COCCOCCNC(=O)CCCCCCCCCCCCCCCCC(=O)O)C(N)=O)NC(=O)[C@H](Cc2c[nH]c3ccccc23)NC(=O)[C@H](CCCNC(=N)N)NC(=O)[C@@H](Cc2ccccc2)NC(=O)[C@H](Cc2c[nH]cn2)NC1=O [Example 34, Ac-c[Orn-His-D-Phe-Arg-Trp-Asp]-Pro-Pro-Arg-Glu-Lys(biscarboxymethyl)-Lys({2-[2-(17-carboxyheptadecanoylamino)ethoxy]ethoxy}acetyl)-NH2] (Ac-[Orn]H[dF]RWDPPRE[Lys(CH2CO2H)2]K([AEEA-C18 diacid])-NH2; lactam 1-6) | 27 µM (≈ 59.1 µg/mL) | 42 µM (≈ 92 µg/mL) | 62 µM (≈ 136 µg/mL) | 87 µM (≈ 191 µg/mL) | 165 µM (≈ 361 µg/mL) | 261 µM (≈ 572 µg/mL) | 355 µM (≈ 778 µg/mL) | 420 µM (≈ 920 µg/mL) | 360 µM (≈ 789 µg/mL) | 0.8 nM |  |  |  |  |  |  |  |  |  | 
2 | CC(=O)N[C@H]1CC(=O)NCCCC[C@@H](C(=O)N2CCC[C@H]2C(=O)N2CCC[C@H]2C(=O)N[C@@H](CCCNC(=N)N)C(=O)N[C@@H](CC(=O)O)C(=O)N[C@@H](CCCCN(CC(=O)O)CC(=O)O)C(=O)N[C@@H](CCCCNC(=O)COCCOCCNC(=O)CCCCCCCCCCCCCCCc2nnn[nH]2)C(N)=O)NC(=O)[C@H](Cc2c[nH]c3ccccc23)NC(=O)[C@H](CCCNC(=N)N)NC(=O)[C@@H](Cc2ccccc2)NC(=O)[C@H](Cc2c[nH]cn2)NC1=O [Example 35, Ac-c[Asp-His-D-Phe-Arg-Trp-Lys]-Pro-Pro-Arg-Asp-Lys(biscarboxymethyl)-Lys[(2-{2-[16-(tetrazol-5-yl)hexadecanoylamino]ethoxy}ethoxy)acetyl]-NH2] (Ac-DH[dF]RWKPPRD[Lys(CH2CO2H)2]K([AEEA-Palmitoyl(16-(5-tetrazolyl))])-NH2; lactam 1-6) |  |  |  |  | 126 µM (≈ 277 µg/mL) | 211 µM (≈ 464 µg/mL) | 425 µM (≈ 935 µg/mL) |  |  | 13 nM | 24 µM (≈ 52.8 µg/mL) | 44 µM (≈ 96.8 µg/mL) | 526 µM (≈ 1160 µg/mL) | 537 µM (≈ 1180 µg/mL) | 572 µM (≈ 1260 µg/mL) |  |  |  |  | 
3 | CC(=O)N[C@H]1CCC(=O)NCCC[C@@H](C(=O)N2CCC[C@H]2C(=O)N2CCC[C@H]2C(=O)N[C@@H](CCCNC(=N)N)C(=O)N[C@@H](CC(=O)O)C(=O)N[C@@H](CCCCN(CC(=O)O)CC(=O)O)C(=O)N[C@@H](CCCCNC(=O)COCCOCCNC(=O)CCCCCCCCCCCCCCCCC(=O)O)C(N)=O)NC(=O)[C@H](Cc2c[nH]c3ccccc23)NC(=O)[C@H](CCCNC(=N)N)NC(=O)[C@@H](Cc2ccccc2)NC(=O)[C@H](Cc2cnc[nH]2)NC1=O [Example 38, Ac-c[Glu-His-D-Phe-Arg-Trp-Orn]-Pro-Pro-Arg-Asp-Lys(biscarboxymethyl)-Lys({2-[2-(17-carboxyheptadecanoylamino)ethoxy]ethoxy}acetyl)-NH2] (Ac-EH[dF]RW[Orn]PPRD[Lys(CH2CO2H)2]K([AEEA-C18 diacid])-NH2; lactam 1-6) |  |  |  |  |  |  | 218 µM (≈ 478 µg/mL) |  |  | 0.9 nM |  |  | 282 µM (≈ 618 µg/mL) | 422 µM (≈ 924 µg/mL) | 430 µM (≈ 942 µg/mL) | 21 µM (≈ 46 µg/mL) | 36 µM (≈ 78.9 µg/mL) | 58 µM (≈ 127 µg/mL) | 111 µM (≈ 243 µg/mL) | 360 µM (≈ 789 µg/mL)
